Data reported in PubChem BioAssay AID332 (DTP/NCI, 2004).
Where “and” joins values, the source holds several entries; their conditions need not be identical. Identical values can stand only once. Inconclusive results are not listed.

Test system: mice, ADJ-PC-20 plasma cell tumor sc, T/C %
Test: NCI In Vivo Anticancer Drug Screen. Data for tumor model ADJ-PC-20 Plasma Cell (subcutaneous) in unknown mice
Conditions: endpoint: mean tumor weight, higher = larger tumour
Description: The antitumor activity of compounds was measured in mice bearing transplantable tumors. Survival or tumor size were measured and the results are expressed as the measurement made in the treated group (T) divided by the measurement made in the vehicle treated control group (C). The tumor model used in this assay is ADJ-PC-20 Plasma Cell (subcutaneous) in unknown mice

[1] = dose: 1.25 mg/kg/injection, schedule: Q01DX010 (ip), vehicle: saline
[2] = dose: 50.0 mg/kg/injection, schedule: Q01DX010 (ip), vehicle: carboxymethylcellulose (CMC)
[3] = dose: 100.0 mg/kg/injection, schedule: Q01DX010 (ip), vehicle: carboxymethylcellulose (CMC)
[4] = dose: 12.5 mg/kg/injection, schedule: Q01DX010 (ip), vehicle: carboxymethylcellulose (CMC)
[5] = dose: 25.0 mg/kg/injection, schedule: Q01DX010 (ip), vehicle: carboxymethylcellulose (CMC)

CSCS(=O)C[C@H](CO)NC(=O)/C=C/c1c(C)[nH]c(=O)[nH]c1=O (some centres not stated)
T/C (dose: 0.25 mg/kg/injection, schedule: Q01DX010 (ip), vehicle: saline): 71 % of control | T/C (dose: 0.5 mg/kg/injection, schedule: Q01DX010 (ip), vehicle: saline): 82 % of control

N=[N+]=CC(=O)OCC(N)C(=O)O (configuration not stated)
T/C [1]: 120 % of control | T/C (dose: 5.0 mg/kg/injection, schedule: Q01DX010 (ip), vehicle: saline): 93 % of control

Clc1ncnc2nc[nH]c12
T/C (dose: 7.8 mg/kg/injection, schedule: Q01DX010 (ip), vehicle: carboxymethylcellulose (CMC)): 153 % of control | T/C (dose: 15.6 mg/kg/injection, schedule: Q01DX010 (ip), vehicle: carboxymethylcellulose (CMC)): 86 % of control | T/C (dose: 31.2 mg/kg/injection, schedule: Q01DX010 (ip), vehicle: carboxymethylcellulose (CMC)): 64 % of control | T/C (dose: 31.25 mg/kg/injection, schedule: Q01DX010 (ip), vehicle: carboxymethylcellulose (CMC)): 14 % of control | T/C (dose: 62.5 mg/kg/injection, schedule: Q01DX010 (ip), vehicle: carboxymethylcellulose (CMC)): 3 % of control | T/C (dose: 125.0 mg/kg/injection, schedule: Q01DX010 (ip), vehicle: carboxymethylcellulose (CMC)): 4 % of control

N[C@@H](Cc1ccc(N(CCCl)CCCl)cc1)C(=O)O
T/C (dose: 0.3 mg/kg/injection, schedule: Q01DX010 (ip), vehicle: saline): 48 % of control | T/C (dose: 0.63 mg/kg/injection, schedule: Q01DX010 (ip), vehicle: saline): 75 % of control | T/C [1]: 52 % of control

Cc1n[nH]c(=O)[nH]c1=O
T/C (dose: 100.0 mg/kg/injection, schedule: Q01DX010 (ip), vehicle: other): 80 % of control | T/C (dose: 200.0 mg/kg/injection, schedule: Q01DX010 (ip), vehicle: other): 85 % of control

C[C@]12C=CC(=O)C=C1CC[C@@H]1[C@@H]2C(=O)C[C@@]2(C)[C@H]1CC[C@]2(O)C(=O)CO
T/C (dose: 6.3 mg/kg/injection, schedule: Q01DX010 (sc), vehicle: steriod suspending solution): 107 % of control | T/C (dose: 12.5 mg/kg/injection, schedule: Q01DX010 (sc), vehicle: steriod suspending solution): 51 % of control | T/C (dose: 100.0 mg/kg/injection, schedule: Q01DX010 (sc), vehicle: steriod suspending solution): 14 % of control

CC/C(=C(/CC)c1ccc(O)cc1)c1ccc(O)cc1
T/C (dose: 62.5 mg/kg/injection, schedule: Q01DX010 (sc), vehicle: steriod suspending solution): 105 % of control

Clc1ccc(C(c2ccccc2Cl)C(Cl)Cl)cc1 (configuration not stated)
T/C (dose: 25.0 mg/kg/injection, schedule: Q01DX010 (sc), vehicle: steriod suspending solution): 66 % of control | T/C (dose: 50.0 mg/kg/injection, schedule: Q01DX010 (sc), vehicle: steriod suspending solution): 60 % of control | T/C (dose: 200.0 mg/kg/injection, schedule: Q01DX010 (sc), vehicle: steriod suspending solution): 86 % of control and 100 % of control and 109 % of control | T/C (dose: 400.0 mg/kg/injection, schedule: Q01DX010 (sc), vehicle: steriod suspending solution): 92 % of control | T/C (dose: 800.0 mg/kg/injection, schedule: Q01DX010 (sc), vehicle: steriod suspending solution): 73 % of control

COc1ccc(/C=N/NC(N)=S)cc1
T/C (dose: 75.0 mg/kg/injection, schedule: Q01DX010 (ip), vehicle: saline): 87 % of control | T/C (dose: 150.0 mg/kg/injection, schedule: Q01DX010 (ip), vehicle: saline): 99 % of control | T/C (dose: 300.0 mg/kg/injection, schedule: Q01DX010 (ip), vehicle: saline): 82 % of control | T/C (dose: 600.0 mg/kg/injection, schedule: Q01DX010 (ip), vehicle: saline): 85 % of control

C[C@@H]1C[C@H]2CC[C@H](O2)[C@H](C)C(=O)O[C@@H](C)C[C@@H]2CC[C@@H](O2)[C@@H](C)C(=O)O[C@H](C)C[C@H]2CC[C@H](O2)[C@H](C)C(=O)O[C@@H](C)C[C@@H]2CC[C@@H](O2)[C@@H](C)C(=O)O1
T/C [2]: 110 % of control | T/C [3]: 120 % of control | T/C (dose: 200.0 mg/kg/injection, schedule: Q01DX010 (ip), vehicle: carboxymethylcellulose (CMC)): 99 % of control

Cn1c(N)nc2nc[nH]c2c1=S
T/C (dose: 6.3 mg/kg/injection, schedule: Q01DX010 (ip), vehicle: carboxymethylcellulose (CMC)): 118 % of control | T/C [4]: 105 % of control | T/C [5]: 116 % of control | T/C [2]: 98 % of control | T/C [3]: 76 % of control

C[C@H](N)C(=O)N[C@@H]1[C@H]2C(=C(O)C[C@@H](O)[C@@H]2O)C(=O)O[C@@H]1C
T/C (dose: 250.0 mg/kg/injection, schedule: Q01DX010 (ip), vehicle: saline): 48 % of control | T/C (dose: 500.0 mg/kg/injection, schedule: Q01DX010 (ip), vehicle: saline): 58 % of control

C1CN1c1nc(N2CC2)nc(N2CC2)n1
T/C (dose: 0.01 mg/kg/injection, schedule: Q01DX010 (ip), vehicle: saline): 38 % of control | T/C (dose: 1.9 micrograms/kg/injection, schedule: Q01DX010 (ip), vehicle: saline): 170 % of control | T/C (dose: 7.8 micrograms/kg/injection, schedule: Q01DX010 (ip), vehicle: saline): 100 % of control | T/C (dose: 8.0 micrograms/kg/injection, schedule: Q01DX010 (ip), vehicle: saline): 101 % of control | T/C (dose: 15.0 micrograms/kg/injection, schedule: Q01DX010 (ip), vehicle: saline): 99 % of control | T/C (dose: 31.0 micrograms/kg/injection, schedule: Q01DX010 (ip), vehicle: saline): 105 % of control | T/C (dose: 31.2 micrograms/kg/injection, schedule: Q01DX010 (ip), vehicle: saline): 37 % of control | T/C (dose: 63.0 micrograms/kg/injection, schedule: Q01DX010 (ip), vehicle: saline): 66 % of control

O=C1C(NC(=O)C2CCCCC2)=C(N2CC2)C(=O)C(NC(=O)C2CCCCC2)=C1N1CC1
T/C (dose: 37.5 mg/kg/injection, schedule: Q01DX010 (ip), vehicle: carboxymethylcellulose (CMC)): 102 % of control and 115 % of control

OCC1OC(n2cnc3c(=S)nc[nH]c32)C(O)C1O (configuration not stated)
T/C (dose: 0.5 mg/kg/injection, schedule: Q01DX010 (ip), vehicle: carboxymethylcellulose (CMC)): 87 % of control | T/C (dose: 1.0 mg/kg/injection, schedule: Q01DX010 (ip), vehicle: carboxymethylcellulose (CMC)): 51 % of control | T/C (dose: 2.0 mg/kg/injection, schedule: Q01DX010 (ip), vehicle: carboxymethylcellulose (CMC)): 25 % of control | T/C (dose: 4.0 mg/kg/injection, schedule: Q01DX010 (ip), vehicle: carboxymethylcellulose (CMC)): 2 % of control | T/C (dose: 8.0 mg/kg/injection, schedule: Q01DX010 (ip), vehicle: carboxymethylcellulose (CMC)): 22 % of control

O=C(Nc1ccc(C2=NCCCN2)cc1)c1ccc(C(=O)Nc2ccc(C3=NCCCN3)cc2)cc1
T/C (dose: 0.05 mg/kg/injection, schedule: Q01DX010 (ip), vehicle: water): 90 % of control | T/C (dose: 0.1 mg/kg/injection, schedule: Q01DX010 (ip), vehicle: water): 83 % of control | T/C (dose: 0.2 mg/kg/injection, schedule: Q01DX010 (ip), vehicle: water): 109 % of control | T/C (dose: 0.4 mg/kg/injection, schedule: Q01DX010 (ip), vehicle: water): 91 % of control and 92 % of control | T/C (dose: 3.12 mg/kg/injection, schedule: Q01DX010 (ip), vehicle: saline): 65 % of control

O=CN(O)CC(=O)O
T/C (dose: 62.5 mg/kg/injection, schedule: Q01DX011 (ip), vehicle: carboxymethylcellulose (CMC)): 124 % of control | T/C (dose: 125.0 mg/kg/injection, schedule: Q01DX011 (ip), vehicle: carboxymethylcellulose (CMC)): 76 % of control | T/C (dose: 250.0 mg/kg/injection, schedule: Q01DX011 (ip), vehicle: carboxymethylcellulose (CMC)): 74 % of control | T/C (dose: 500.0 mg/kg/injection, schedule: Q01DX010 (ip), vehicle: carboxymethylcellulose (CMC)): 89 % of control | T/C (dose: 500.0 mg/kg/injection, schedule: Q01DX011 (ip), vehicle: carboxymethylcellulose (CMC)): 56 % of control | T/C (dose: 1000.0 mg/kg/injection, schedule: Q01DX010 (ip), vehicle: carboxymethylcellulose (CMC)): 63 % of control

COS(C)(=O)=O
T/C (dose: 25.0 mg/kg/injection, schedule: Q01DX010 (ip), vehicle: water): 110 % of control | T/C (dose: 50.0 mg/kg/injection, schedule: Q01DX010 (ip), vehicle: water): 82 % of control | T/C (dose: 100.0 mg/kg/injection, schedule: Q01DX010 (ip), vehicle: water): 42 % of control

CS(=O)(=O)OCC(O)C(O)COS(C)(=O)=O (configuration not stated)
T/C (dose: 99.0 mg/kg/injection, schedule: Q01DX010 (ip), vehicle: saline): 78 % of control | T/C (dose: 188.0 mg/kg/injection, schedule: Q01DX010 (ip), vehicle: saline): 53 % of control | T/C (dose: 375.0 mg/kg/injection, schedule: Q01DX010 (ip), vehicle: saline): 58 % of control | T/C (dose: 750.0 mg/kg/injection, schedule: Q01DX010 (ip), vehicle: saline): 7 % of control

O=c1[nH]cc(F)c(=O)[nH]1
T/C (dose: 1.56 mg/kg/injection, schedule: Q01DX010 (ip), vehicle: saline): 173 % of control | T/C (dose: 6.25 mg/kg/injection, schedule: Q01DX010 (ip), vehicle: saline): 35 % of control | T/C (dose: 12.5 mg/kg/injection, schedule: Q01DX010 (ip), vehicle: saline): 20 % of control

CS(=O)(=O)OCCCl
T/C [4]: 120 % of control | T/C [5]: 114 % of control | T/C [2]: 76 % of control | T/C [3]: 124 % of control
